What was measured:
Assay type in all cases: functional, cell-based
PSN1 = experiment: Antiproliferative activity against human PSN1 cells after 72 hrs by WST8 assay; details: PSN1, 72 h
[1] = Antiproliferative activity against human TIG3 cells after 72 hrs by WST8 assay; details: TIG-3, 72 h
A549 = experiment: Antiproliferative activity against human A549 cells after 72 hrs by WST8 assay; details: A549, 72 h
MDA-MB-231 = experiment: Antiproliferative activity against human MDA-MB-231 cells after 72 hrs by WST8 assay; details: MDA-MB-231, 72 h
[2] = Antiproliferative activity against human PANC1 cells after 72 hrs by WST8 assay; details: PANC-1, 72 h

Compound | IC50 (PSN1) | IC50 [1] | IC50 (A549) | IC50 (MDA-MB-231) | IC50 [2]
C=C[C@]1(C)C=C2CC[C@H]3C(C)(C)[C@H](O)C[C@H](O)[C@]3(C)[C@H]2CC1 | 12.3 µM | – | – | – | –
O=c1[nH]cc(F)c(=O)[nH]1 [FLUOROURACIL] | 4.4 µM | 8.4 µM | 2.8 µM | 5.2 µM | 3.7 µM

— ChEMBL document CHEMBL3580563, “Kaempulchraols A-H, Diterpenoids from the Rhizomes of Kaempferia pulchra Collected in Myanmar” (J Nat Prod, 2015)
